Data on 1 molecule can be found in US10342806B2, “Hormone treatment for age-related hearing loss-presbycusis” (priority 2014, dated 2019).

Structures are written as SMILES.

One series deals with CBA/CaJ mice. The series is described as follows: Auditory brainstem response (ABR) thresholds in aging CBA/CaJ mice. The series is classed as in vivo, mouse. The procedure: After 60 (2 months) or 120 days (4 months) of ALD implantation, mice were anesthetized with a combination of ketamine and xylazine (100 μl i.p. of sterile saline containing 100 mg/ml ketamine and […]) for ABR measurements.
Auditory brainstem responses (ABRs) were measured again at 2 and 4 months after treatment started
Auditory brainstem responses were obtained as follows. The mice were anesthetized with a mixture of ketamine/xylazine (120 and 10 mg/kg body weight, respectively, intraperitoneal injection) prior to all experimental sessions. All recording sessions were completed in a soundproof acoustic chamber (IAC) with body temperature maintained with a heating pad. ABRs were measured using Biosig (TDT, Alachua, Fla.) data-acquisition system which recorded responses to 5 ms tone pips ([…] rise-fall times) with a cos^2 onset envelope, presented at rate of 29/sec. Wave I threshold was defined as the lowest intensity which elicited a clearly replicable response. ABRs were measured pre-treatment and post-treatment at 2 and 4 mon. The pre-treatment ABR threshold was used as the baseline to calculate the thresholds shifts. The wave I peak-to-peak amplitudes were analyzed. Data was compared using GraphPad Prism 5.0 (GraphPad Software, Inc. La Jolla, Calif., USA.
As male mice weigh on average 28.0 g at week 9 and female mice 23.1 g, doses of the anti-inflammatory were designed to bracket a dose of 5 mg/kg/day. A total five groups (n=8, half male and half female) were tested. Treatment continued for 120 days or until the mouse was euthanized. […] Death was confirmed by terminal phlebotomy/exsanguinations and perfusion.
Mice were treated at middle age, as above, using 0.0016 mg/day of D-aldosterone, a combination of 0.0016 mg/day of D-aldosterone and 0.042 mg/day of Aspirin; and a control placebo (saline).

A further series relates to caspase-3. The series is described as follows: Caspase-3 expression in modiolar tissue samples. The conditions noted are these: ALD-treated middle-aged mice vs control middle-aged and young mice. In kind it is in vivo, mouse. On the procedure:
(§1) During treatment, blood pressures were measured for the mice at 2 and 4 months after start of treatment. […] Death was confirmed by terminal phlebotomy/exsanguinations and perfusion. Cell lysates were collected and subject to western blot and RT-PCT analysis. The cells were placed in RIPA buffer and sonicated. Protein concentration was measured using the Bradford method. Proteins were separated by SDS-PAGE. The antibodies used for western blot were: anti-iNOS, nNOS and caspase-3 antibodies (Cell Signaling, Cambridge, Mass.). Total cellular RNA was extracted using the RNeasy Plus Mini Kit (74134). For RT-PCR, 10 ng of total cellular RNA was reverse transcribed and complementary DNA was amplified, using the Enhanced Avian HS RT-PCR-100 Kit (Sigma, HSRT20).

In another series the test system is CBA mice. Conditions: ALD-treated aging CBA mice (Halonen et al. 2014); cited from earlier work.
For a further series, the system named is iNOS and nNOS. The series is described as follows: iNOS and nNOS expression in modiolar tissue samples. In kind it is in vivo, mouse. The conditions noted are these: young adult, control middle-aged, ALD-treated middle-aged mice. On the procedure:
as §1, with “HSRT20). Primers used for qRT-PCR were as follows: […]” for “HSRT20).”

Series [1] in a line: Tail-cuff plethysmography of blood pressure. The series is classed as in vivo, mouse. The conditions noted are these: 0.0016 mg/day pellet, measured at 2 and 4 months. The procedure: FIG. 27(A) is graph showing the tail-cuff plethysmography of blood pressure for ALD treatments of 60 days and 120 days, compared to middle-age control mice. Diastolic blood pressures were measured for middle-aged (20-21 mon) CBA/CaJ mice and middle-age ALD treated (0.0016 mg/day continuous release through 120 days, one pellet for 60 days and subsequently a second pellet for 60 days) mice, each group, n=5. Pressures were taken at 60 and 120 days and compared to the middle-age control animals. Mean±SD for each group.
FIG. 27(B) is a graph showing the tail-cuff plethysmography of blood pressure for ALD treatments of 60 days and 120 days, compared to middle-age control mice. Systolic blood pressures were measured for middle-aged (20-21 mon) CBA/CaJ mice and middle-age ALD treated (0.0016 mg/day continuous release through 120 days, one pellet for 60 days and subsequently a second pellet for 60 days) mice, each group, n=5. Pressures were taken at 60 and 120 days and compared to the middle-age control animals. Mean±SD for each group.
During treatment, blood pressures were measured for the mice at 2 and 4 months after start of treatment.

Another series concerns NKCC1. Conditions: Jiang et al. 2003, cited from earlier work.

Take `C[C@]12CCC(=O)C=C1CC[C@@H]1[C@@H]2[C@@H](O)C[C@]2(C=O)[C@@H](C(=O)CO)CC[C@@H]12` [ALD, aldosterone]: the ABR frequency response entry with CBA/CaJ mice (12, 24, 32, 36 kHz at 2 months and 4 months, 0.0016 mg/day) is recorded as “showed improvement”. Moreover, in the series with CBA/CaJ mice (24, 32 and 36 kHz, at 120 days), the “ABR thresholds, control vs ALD treated group” value is reported as “significantly elevated in the control, non-treated, group relative to the ALD treated group”. The “ABR shift / ABR thresholds” value in the series with CBA/CaJ mice (24 kHz and 36 kHz, 2 and 4 month of treatment, vs placebo, Example 7) is reported as “reduced ABR shifts”. Also, in the series on CBA/CaJ mice (high sound levels, relative to the control group), the “ABR peak 1 amplitude” value is reported as “increased significantly at high sound levels”. Besides, the “dose optimal for ABR threshold improvements” value in the series on CBA/CaJ mice (slow-release subcutaneous pellets, doses 0.00048 to 0.00476 mg/day, 60 or 120 days, relative to age-matched control mice) was found to be 0.0016 mg/day. Also, in the series with caspase-3, the “caspase-3 levels in modiolar tissue” value is reported as “reduced caspase-3 to levels below even the young mice samples”. The “auditory temporal processing (prepulse inhibition)” value in the series on CBA mice is given as “provocative increases in auditory temporal processing”. In the series on iNOS and nNOS, the “iNOS and nNOS gene expression” value is “no alteration in NOS expression”; the iNOS protein levels result was “approximately the same”. Also, the “diastolic or systolic blood pressure” value in series [1] is “neither aging nor the hormone treatment appeared to affect either diastolic or systolic blood pressure”. In the series on NKCC1, the “NKCC1 transcripts, real-time polymerase chain reaction” value is “did not elevate NKCC1 transcripts”. In addition, in the series with NKCC1 (adrenalectomized rats, multiday treatment), the “increase in NKCC1 activity” value is 63%.
